Assay [1] concerns the target DLK (Homo sapiens (Human), UniProt Q12852). Description: DLK biochemical assay (TR-FRET, MKK7 phosphorylation). The method, boiled down:
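Catalytic-domain DLK (10 nM) phosphorylates His-MKK7 (15 nM) with 60 μM ATP, 90 min at RT, in pH 7.5 HEPES buffer. Phospho-T275/S277 read by TR-FRET (Eu anti-phospho donor, XL665 anti-His acceptor) after 16 h detection, at 37° C. in 1536 or 4° C. in 384 format.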
In general terms: TR-FRET usually uses a lanthanide donor and a delayed reading to cut background.

Assay [2] deals with LZK (Homo sapiens (Human), UniProt O43283). Description: LZK biochemical assay (TR-FRET, MKK7 phosphorylation). A digest of the protocol:
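Catalytic-domain LZK (10 nM) phosphorylated His-MKK7 (15 nM) with 15 μM ATP for 90 min at RT. Phospho-T275/S277 detected by Eu-anti-phospho-MKK7/XL665-anti-His TR-FRET after 16 h at 32° C, using the 665/Eu ratio. Buffer: 50 mM Hepes pH 7.5, 10 mM MgCl2, 1 mM DTT.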

Each structure is given as a SMILES string. Where only a bound is given, the exact number is not on record here.

Chain of DLK (Q12852 1-520): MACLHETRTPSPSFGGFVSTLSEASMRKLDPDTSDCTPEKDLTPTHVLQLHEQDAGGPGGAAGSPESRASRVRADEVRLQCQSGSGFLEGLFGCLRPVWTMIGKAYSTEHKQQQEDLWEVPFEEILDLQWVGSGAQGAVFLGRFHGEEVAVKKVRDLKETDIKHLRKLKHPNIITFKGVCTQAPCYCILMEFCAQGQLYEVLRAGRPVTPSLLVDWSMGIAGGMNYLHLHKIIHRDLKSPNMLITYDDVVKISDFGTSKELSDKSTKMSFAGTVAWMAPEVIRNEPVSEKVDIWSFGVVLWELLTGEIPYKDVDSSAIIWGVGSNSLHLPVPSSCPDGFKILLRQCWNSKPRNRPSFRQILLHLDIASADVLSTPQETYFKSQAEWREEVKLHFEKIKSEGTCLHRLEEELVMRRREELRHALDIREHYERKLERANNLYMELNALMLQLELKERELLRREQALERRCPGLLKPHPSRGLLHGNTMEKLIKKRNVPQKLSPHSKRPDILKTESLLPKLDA
Chain of LZK (O43283 168-409): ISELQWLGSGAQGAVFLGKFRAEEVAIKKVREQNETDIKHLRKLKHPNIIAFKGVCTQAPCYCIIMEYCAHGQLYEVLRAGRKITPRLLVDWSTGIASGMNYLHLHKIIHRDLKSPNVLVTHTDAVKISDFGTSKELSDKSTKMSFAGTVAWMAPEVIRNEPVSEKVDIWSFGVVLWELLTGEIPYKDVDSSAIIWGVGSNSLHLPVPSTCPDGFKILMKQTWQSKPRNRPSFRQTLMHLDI

For orientation: IC50 means the concentration needed to halve the response being measured. `Nc1nc2ccc(-c3csc(C(=O)NCc4cccc(OCCN5CCOCC5)c4)c3)cn2n1` [Compound 207]: the IC50 in assay [1] worked out at 470 nM; in assay [2], 27000 nM.

For `Nc1nc2ccc(-c3csc(C(=O)NCc4cc(F)cc(F)c4)c3)cn2n1` [Compound 222], the IC50 was 1390 nM in assay [1] and 5700 nM in assay [2].

Regarding `COc1cccc(C(C)NC(=O)c2cc(-c3ccc4nc(N)nn4c3)cs2)c1` (stereo not drawn) [Compound 232], the half-maximal inhibitory concentration (IC50) in assay [1] amounted to 200 nM; in assay [2], 25000 nM.

Turning to `Nc1nc2ccc(-c3csc(C(=O)NC4(c5ccc(F)cc5)CC4)c3)cn2n1` [Compound 299], the values for the IC50 in assay [1] and in assay [2] were 120 nM and 2500 nM, respectively.

For `C[C@H](NC(=O)c1cc(-c2ccc3nc(N)nn3c2)cs1)c1nc2ccccc2o1` [Compound 358], the values for the concentration for half-maximal inhibition (IC50) in assay [1] and in assay [2] were 110 nM and 1200 nM, respectively.

In the case of `CCc1ccccc1NC(=O)c1cc(-c2ccc3nc(N)nn3c2)cs1` [Compound 278], the results for the IC50 in assay [1] and in assay [2] were 440 nM and above 30000 nM, respectively.

As to `Cn1cccc1CNC(=O)c1cc(-c2ccc3nc(N)nn3c2)cs1` [Compound 276], the half-inhibitory concentration (IC50) is 420 nM in assay [1] and 15000 nM in assay [2].

With `Nc1nc2cc(-c3csc(C(=O)NCc4ccc(F)cc4)c3)ccn2n1` [Compound 363], the 50% inhibitory concentration (IC50) is 640 nM in assay [1] and 8700 nM in assay [2].

As to `Nc1nc2c(C(F)(F)F)cc(-c3csc(C(=O)NCc4ccc(F)cc4)c3)cn2n1` [Compound 375], the IC50 in assay [1] is 840 nM; in assay [2], 3300 nM.

As to `COc1ccc(CNC(=O)c2cc(-c3ccc4nc(N)nn4c3)cs2)cc1OC` [Compound 202], the IC50 in assay [1] is 820 nM; in assay [2], above 30000 nM.

As for `CC(C)NC(=O)c1cc(-c2csc(C(=O)NC3CC(C)(C)Oc4ccccc43)c2)cn2nc(N)nc12` (stereo not drawn) [Compound 121], the IC50 was found to be 17 nM in assay [1] and 520 nM in assay [2].

As to `Nc1nc2ccc(-c3csc(C(=O)NCc4ccccc4)c3)cn2n1` [Compound 168], the values for the IC50 in assay [1] and in assay [2] were 380 nM and 4600 nM, respectively.

As for `CC(C)NC(=O)c1cc(-c2csc(C(=O)NC(COC(F)(F)F)c3ccccc3)c2)cn2nc(N)nc12` (stereo not drawn) [Compound 117], the 50% inhibitory concentration (IC50) in assay [1] was determined as 21 nM; in assay [2], 240 nM.

Turning to `C[C@@H](CO)NC(=O)c1cc(-c2csc(C(=O)NC3CCCCC3)c2)cn2nc(N)nc12` [Compound 39], the figures for the IC50 in assay [1] and in assay [2] were 37.5 nM and 590 nM, respectively.

As to `C[C@H](NC(=O)c1cc(-c2ccc3nc(N)nn3c2)cs1)c1ccccc1F` [Compound 359], the values for the IC50 in assay [1] and in assay [2] were 160 nM and above 30000 nM, respectively.

`Nc1nc2ccc(-c3csc(C(=O)NCc4cnc5ccccn45)c3)cn2n1` [Compound 261]: the concentration for half-maximal inhibition (IC50) in assay [1] came out at 510 nM; in assay [2] it was 14000 nM.

Regarding `CC[C@H](NC(=O)c1cc(-c2cc(C(=O)NC(C)CF)c3nc(N)nn3c2)cs1)c1ccc(F)cc1` (stereo partly drawn) [Compound 141], the IC50 amounted to 10 nM in assay [1] and 63 nM in assay [2].

In the case of `CC(C)NC(=O)c1cc(-c2csc(C(=O)N[C@@H](C)c3ccc(C(F)(F)F)cc3)c2)cn2nc(N)nc12` [Compound 83], the IC50 in assay [1] came out at 73 nM; in assay [2] it was 4200 nM.

On to `COCc1cc(-c2csc(C(=O)N[C@@H](C)c3ccc(F)cc3)c2)cn2nc(N)nc12` [Compound 388], for which the results for the concentration for half-maximal inhibition (IC50) in assay [1] and in assay [2] were 210 nM and 1200 nM, respectively.

With `C[C@H](NC(=O)c1cc(-c2cc(C(=O)NC3CCC3)c3nc(N)nn3c2)cs1)c1ccccc1` [Compound 59], the 50% inhibitory concentration (IC50) in assay [1] stood at 4.35 nM; in assay [2], 255 nM.

With `Nc1nc2ccc(-c3csc(C(=O)NCc4ccccc4C(F)(F)F)c3)cn2n1` [Compound 220], the IC50 in assay [1] turned out to be 580 nM; in assay [2] it was 22000 nM.

Regarding `CCN1CCCC(NC(=O)c2cc(-c3ccc4nc(N)nn4c3)cs2)C1` (stereo not drawn) [Compound 180], the IC50 in assay [1] was 2000 nM; in assay [2], above 30000 nM.

As for `CC(C)NC(=O)c1cc(-c2csc(C(=O)NCc3nc4ccccc4o3)c2)cn2nc(N)nc12` [Compound 35], the IC50 came to 32 nM in assay [1] and 120 nM in assay [2].

For the compound `C[C@H](NC(=O)c1cc(-c2cc(C(=O)NC3CCNC3)c3nc(N)nn3c2)cs1)c1ccccc1` (single isomer, unassigned) [Compound 57], the half-maximal inhibitory concentration (IC50) is 92 nM in assay [1] and 2100 nM in assay [2].

On to `CCNC(=O)c1cc(-c2csc(C(=O)N[C@@H](C)c3ccc(F)cc3)c2)cc2nc(N)nn12` [Compound 158], for which the IC50 in assay [1] turned out to be 33 nM; in assay [2], 560 nM.

Turning to `CC[C@H](NC(=O)c1cc(-c2ccc3nc(N)nn3c2)cs1)c1ccccc1` [Compound 324], the figures for the IC50 in assay [1] and in assay [2] were 62 nM and 1600 nM, respectively.

With `C[C@H](NC(=O)c1cc(-c2cc(C(=O)NC3CC3)c3nc(N)nn3c2)cs1)c1ccccc1` [Compound 44], the half-inhibitory concentration (IC50) in assay [1] worked out at 47 nM; in assay [2], 1400 nM.

For `CC[C@H](NC(=O)c1cc(-c2cc(-c3cnn(CC(F)(F)F)c3)c3nc(N)nn3c2)cs1)c1ccc(F)cc1` [Compound 403], the half-maximal inhibitory concentration (IC50) in assay [1] worked out at 140 nM; in assay [2] it was 5700 nM.

Turning to `CC[C@H](NC(=O)c1cc(-c2cc(-c3nnc([C@@H](C)CO)s3)c3nc(N)nn3c2)cs1)c1ccc(F)cc1` [Compound 401], the concentration for half-maximal inhibition (IC50) in assay [1] came out at 8.1 nM; in assay [2], 115 nM.

In the case of `Nc1nc2ccc(-c3csc(C(=O)NC4(c5ccc(F)cc5)CCC4)c3)cn2n1` [Compound 309], the values for the IC50 in assay [1] and in assay [2] were 120 nM and 6600 nM, respectively.

For `Nc1nc2ccc(-c3csc(C(=O)NC4CCC4)c3)cn2n1` [Compound 171], the IC50 in assay [1] was 970 nM; in assay [2], above 30000 nM.

Take `CCN(CC)Cc1ccc(CNC(=O)c2cc(-c3ccc4nc(N)nn4c3)cs2)cc1` [Compound 329]: the half-inhibitory concentration (IC50) in assay [1] came to 740 nM; in assay [2] it was 21000 nM.

As for `Nc1nc2ccc(-c3csc(C(=O)NC4CCOc5ccccc54)c3)cn2n1` (stereo not drawn) [Compound 317], the IC50 amounted to 97 nM in assay [1] and 3600 nM in assay [2].

Consider `CC[C@H](NC(=O)c1cc(-c2cc(C(=O)NC(C)CF)c3nc(N)nn3c2)cs1)c1ccc(F)cc1` (single isomer, unassigned) [Compound 144-2], for which the 50% inhibitory concentration (IC50) in assay [1] came out at 23 nM; in assay [2], 200 nM.

Regarding `CN(CCc1ccccc1)C(=O)c1cc(-c2ccc3nc(N)nn3c2)cs1` [Compound 284], the figures for the IC50 in assay [1] and in assay [2] were 2600 nM and above 30000 nM, respectively.

For the compound `COc1ccnc(CNC(=O)c2cc(-c3ccc4nc(N)nn4c3)cs2)c1` [Compound 256], the results for the IC50 in assay [1] and in assay [2] were 1600 nM and 17000 nM, respectively.

As to `CCC[C@H](NC(=O)c1cc(-c2ccc3nc(N)nn3c2)cs1)c1ccccc1` [Compound 321], the IC50 in assay [1] is 67 nM; in assay [2], 3700 nM.

Turning to `C[C@H](NC(=O)c1cc(-c2cc(C(=O)NC3CCNC3)c3nc(N)nn3c2)cs1)c1ccc(F)cc1` (single isomer, unassigned) [Compound 49], the IC50 amounted to 94 nM in assay [1] and 1100 nM in assay [2].

For the compound `Nc1nc2ccc(-c3csc(C(=O)NCc4cccc(C(=O)O)c4)c3)cn2n1` [Compound 285], the IC50 in assay [1] turned out to be 1700 nM; in assay [2], 20000 nM.

`C[C@H](NC(=O)c1cc(-c2cc(C(=O)NC3CNC(=O)C3)c3nc(N)nn3c2)cs1)c1ccccc1` (single isomer, unassigned) [Compound 55]: the IC50 in assay [1] turned out to be 88 nM; in assay [2], 6500 nM.

For the compound `CC[C@H](C)NC(=O)c1cc(-c2csc(C(=O)N[C@@H](COC)c3ccc(F)cc3)c2)cn2nc(N)nc12` [Compound 138], the IC50 in assay [1] turned out to be 4.2 nM; in assay [2], 31 nM.

Turning to `NC(=O)c1cc(-c2csc(C(=O)NCc3ccc(F)cc3)c2)cn2nc(N)nc12` [Compound 42], the IC50 in assay [1] is 70 nM; in assay [2], 480 nM.

Take `Nc1nc2ccc(-c3csc(C(=O)N[C@@H](CCO)c4ccc(F)cc4)c3)cn2n1` [Compound 341]: the IC50 in assay [1] was 230 nM; in assay [2] it was 5100 nM.

On to `C[C@H](NC(=O)c1cc(-c2ccc3nc(N)nn3c2)c(F)s1)c1ccc(F)cc1` [Compound 362], for which the half-maximal inhibitory concentration (IC50) in assay [1] is 8200 nM; in assay [2], 23000 nM.

Regarding `Nc1nc2ccc(-c3csc(C(=O)NCc4ccc(F)c(F)c4)c3)cn2n1` [Compound 212], the concentration for half-maximal inhibition (IC50) in assay [1] was 1070 nM; in assay [2] it was 9600 nM.

In the case of `CC(C)c1nnc(-c2cc(-c3csc(C(=O)N[C@@H](C)c4ccc(F)cc4)c3)cn3nc(N)nc23)s1` [Compound 392], the values for the IC50 in assay [1] and in assay [2] were 100 nM and 830 nM, respectively.

In the case of `CC[C@H](C)NC(=O)c1cc(-c2csc(C(=O)N[C@@H](C)c3ccc(F)cc3)c2)cn2nc(N)nc12` [Compound 94, 2-Amino-N-[(2S)-butan-2-yl]-6-(5-{[(1S)-1-(4-fluorophenyl)ethyl]carbamoyl}thiophen-3-yl)[1,2,4]triazolo[1,5-a]pyridine-8-carboxamide], the IC50 in assay [1] stood at 4.75 nM; in assay [2], 34 nM.

Consider `CC(C)NC(=O)c1cc(-c2csc(C(=O)NCc3ccccc3)c2)cn2nc(N)nc12` [Compound 11], for which the IC50 in assay [1] came to 17 nM; in assay [2], 90 nM.

For the compound `Cn1nccc1CNC(=O)c1cc(-c2ccc3nc(N)nn3c2)cs1` [Compound 255], the IC50 in assay [1] came to 1990 nM; in assay [2], 4400 nM.

Turning to `CC(C)C(NC(=O)c1cc(-c2ccc3nc(N)nn3c2)cs1)c1ccc(F)cc1` (stereo not drawn) [Compound 301], the IC50 in assay [1] turned out to be 100 nM; in assay [2], 16500 nM.

As to `CC[C@H](NC(=O)c1cc(-c2csc(C(=O)N[C@@H](C)c3ccc(F)cc3)c2)cn2nc(N)nc12)C(F)(F)F` [Compound 144-5], the IC50 in assay [1] was 630 nM; in assay [2], 2600 nM.
